Among the data in US20250084074A1, “SUBSTITUTED HETEROCYCLES AS HSET INHIBITORS” (MERCK PATENT GMBH, priority 2022, published 2025) are IC50 values, retold here.

HSET full length protein, sequence (Q9BW19 whole entry): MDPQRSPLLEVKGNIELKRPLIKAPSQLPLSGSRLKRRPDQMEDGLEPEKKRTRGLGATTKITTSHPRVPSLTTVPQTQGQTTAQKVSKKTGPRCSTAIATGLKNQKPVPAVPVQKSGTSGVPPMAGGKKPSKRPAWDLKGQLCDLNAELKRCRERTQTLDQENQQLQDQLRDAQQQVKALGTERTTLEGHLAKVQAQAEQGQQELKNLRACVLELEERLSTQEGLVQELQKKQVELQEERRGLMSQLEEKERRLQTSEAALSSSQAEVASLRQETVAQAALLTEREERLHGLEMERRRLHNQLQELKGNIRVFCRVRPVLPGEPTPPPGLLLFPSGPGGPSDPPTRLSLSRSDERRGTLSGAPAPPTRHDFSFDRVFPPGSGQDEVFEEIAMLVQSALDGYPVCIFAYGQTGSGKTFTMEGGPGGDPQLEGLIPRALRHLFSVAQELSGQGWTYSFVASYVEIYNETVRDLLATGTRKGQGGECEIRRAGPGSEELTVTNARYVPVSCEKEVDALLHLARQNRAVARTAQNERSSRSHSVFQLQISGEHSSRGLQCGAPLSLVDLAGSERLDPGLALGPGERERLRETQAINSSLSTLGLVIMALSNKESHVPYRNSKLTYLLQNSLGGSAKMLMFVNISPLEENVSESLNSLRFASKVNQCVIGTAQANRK

The target of the test is HSET full length protein (Homo sapiens (Human), UniProt Q9BW19). Briefly: HSET ADP-Glo Assay S - 3 μM ATP. In kind it is biochemical. Conditions: 5 nM HSET, 70 μg/mL microtubule, 80 min at rt, read-out: COMBINED HSET ADP GLO IC50. The essentials:
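ADP-Glo luminescence read-out: ATPase reaction at 3 μM ATP, 80 min at room temperature, after a 10 min compound preincubation. Enzyme was full-length human HSET at 5 nM, stimulated by 70 μg/mL paclitaxel-stabilised bovine microtubules in HEPES pH 6.8 buffer with MgCl2, EGTA, Triton X-100 and DTT.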
Background: ADP-Glo first removes unused ATP, then detects ADP through luciferase.
The term IC50 denotes the concentration at which inhibition is half-maximal. With `Cc1nc(-c2ccc3ccnc(N[C@H]4C[C@](F)(C(=O)Nc5nc(C)c(C(=O)OC(C)(C)C)s5)C4)c3c2)no1` [Example 223, tert-Butyl 2-((1s,3s)-1-fluoro-3-((7-(5-methyl-1,2,4-oxadiazol-3-yl)isoquinolin-1-yl)amino)cyclobutane-1-carboxamido)-4-methylthiazole-5-carboxylate], the IC50 was 219 nM. Take `Cc1nc(-c2ccc3ccnc(N[C@H]4C[C@@](C)(C(=O)Nc5nc(C)c(C(=O)OC(C)(C)C)s5)C4)c3c2)no1` [Example 224, tert-Butyl 4-methyl-2-((1s,3s)-1-methyl-3-((7-(5-methyl-1,2,4-oxadiazol-3-yl)isoquinolin-1-yl)amino)cyclobutane-1-carboxamido)thiazole-5-carboxylate]: the IC50 is 270 nM.

For `Cc1nc(-c2ccc3ccnc(N[C@@H]4CCN(C(=O)Nc5nc(C)c(C(=O)OC(C)(C)C)s5)C4)c3c2)no1` [Example 225, tert-Butyl 4-methyl-2-[[(3R)-3-[[7-(5-methyl-1,2,4-oxadiazol-3-yl)-1-isoquinolyl]amino]pyrrolidine-1-carbonyl]amino]thiazole-5-carboxylate], the IC50 came to 1660 nM.

Take `Cc1nc(-c2ccc3ccnc(N[C@H]4CCN(C(=O)Nc5nc(C)c(C(=O)OC(C)(C)C)s5)C4)c3c2)no1` [Example 226, tert-Butyl 4-methyl-2-[[(3S)-3-[[7-(5-methyl-1,2,4-oxadiazol-3-yl)-1-isoquinolyl]amino]pyrrolidine-1-carbonyl]amino]thiazole-5-carboxylate]: the concentration for half-maximal inhibition (IC50) was 12 nM. With `Cc1nc(-c2ccc3ccnc(N[C@H]4CCN(C(=O)N(C)c5nc(C)c(C(=O)OC(C)(C)C)s5)C4)c3c2)no1` [Example 227, tert-Butyl 4-methyl-2-[methyl-[(3S)-3-[[7-(5-methyl-1,2,4-oxadiazol-3-yl)-1-isoquinolyl]amino]pyrrolidine-1-carbonyl]amino]thiazole-5-carboxylate] the figure was 88 nM; with `Cc1nc(-c2cccc(C(=O)NC3CN(C(=O)Nc4nc(C)c(C(=O)OC(C)(C)C)s4)C3)c2)no1` [Example 228, tert-Butyl 4-methyl-2-[[3-[[3-(5-methyl-1,2,4-oxadiazol-3-yl)benzoyl]amino]azetidine-1-carbonyl]amino]thiazole-5-carboxylate], 86 nM; with `Cc1nc(-c2cccc(C(=O)NC3CN(C(=O)N(C)c4nc(C)c(C(=O)OC(C)(C)C)s4)C3)c2)no1` [Example 229, tert-Butyl 4-methyl-2-[methyl-[3-[[3-(5-methyl-1,2,4-oxadiazol-3-yl)benzoyl]amino]azetidine-1-carbonyl]amino]thiazole-5-carboxylate], 52 nM.

Turning to `Cc1nc(-c2ccc3ccnc(NC4CN(C(=O)Nc5nc(C)c(C(=O)OC(C)(C)C)s5)C4)c3c2)no1` [Example 230, tert-Butyl 4-methyl-2-[[3-[[7-(5-methyl-1,2,4-oxadiazol-3-yl)-1-isoquinolyl]amino]azetidine-1-carbonyl]amino]thiazole-5-carboxylate], the IC50 was found to be 2 nM. In the case of `Cc1nc(-c2ccc3ccnc(NC4CN(C(=O)N(C)c5nc(C)c(C(=O)OC(C)(C)C)s5)C4)c3c2)no1` [Example 231, tert-Butyl 4-methyl-2-[methyl-[3-[[7-(5-methyl-1,2,4-oxadiazol-3-yl)-1-isoquinolyl]amino]azetidine-1-carbonyl]amino]thiazole-5-carboxylate] it was 5 nM; in that of `Cc1nc(-c2ccc3ccnc(NC4CN(C(=O)Nc5nc(C)c(C(C)(C)C)s5)C4)c3c2)no1` [Example 232, N-(5-(tert-butyl)-4-methylthiazol-2-yl)-3-((7-(5-methyl-1,2,4-oxadiazol-3-yl)isoquinolin-1-yl)amino)azetidine-1-carboxamide], 44 nM; in that of `CCCOC(=O)c1sc(N(C)C(=O)CCNC(=O)c2cc(Cl)cc(-c3noc(C)n3)c2)nc1C` [Example 233, Propyl 2-(3-(3-chloro-5-(5-methyl-1,2,4-oxadiazol-3-yl)benzamido)-N-methylpropanamido)-4-methylthiazole-5-carboxylate], 30 nM. Take `CCCOC(=O)c1sc(NC(=O)[C@@H]2C[C@H](NC(=O)c3cccc(-c4noc(C)n4)c3)CN2C)nc1C` [Example 234, Propyl 4-methyl-2-((2S,4S)-1-methyl-4-(3-(5-methyl-1,2,4-oxadiazol-3-yl)benzamido)pyrrolidine-2-carboxamido)thiazole-5-carboxylate]: the concentration for half-maximal inhibition (IC50) worked out at 2100 nM. In the case of `CCCOC(=O)c1sc(NC(=O)[C@H]2C[C@@H](NC(=O)c3cccc(-c4noc(C)n4)c3)CN2C)nc1C` [Example 235, Propyl 4-methyl-2-((2R,4R)-1-methyl-4-(3-(5-methyl-1,2,4-oxadiazol-3-yl)benzamido)pyrrolidine-2-carboxamido)thiazole-5-carboxylate] it was 6780 nM; in that of `Cc1nc(-c2ccc3ccnc(N[C@H]4C[C@@H](C(=O)Nc5nc(C)c(C(C)(C)C)s5)N(C)C4)c3c2)no1` [Example 236, (2S,4S)-N-(5-(tert-butyl)-4-methylthiazol-2-yl)-1-methyl-4-((7-(5-methyl-1,2,4-oxadiazol-3-yl)isoquinolin-1-yl)amino)pyrrolidine-2-carboxamide], 2840 nM; in that of `CCCOC(=O)c1sc(NC(=O)[C@@H]2C[C@H](Nc3nccc4ccc(-c5noc(C)n5)cc34)CN2C)nc1C` [Example 237, Propyl 4-methyl-2-((2S,4S)-1-methyl-4-((7-(5-methyl-1,2,4-oxadiazol-3-yl)isoquinolin-1-yl)amino)pyrrolidine-2-carboxamido)thiazole-5-carboxylate], 100 nM. With `CCCCCc1cc(NC(=O)[C@@H]2C[C@H](Nc3nccc4ccc(-c5noc(C)n5)cc34)CN2C)nn1C` [Example 238, (2S,4S)-1-methyl-4-((7-(5-methyl-1,2,4-oxadiazol-3-yl)isoquinolin-1-yl)amino)-N-(1-methyl-5-pentyl-1 H-pyrazol-3-yl)pyrrolidine-2-carboxamide] the figure was 6740 nM. Turning to `CCCOC(=O)c1sc(NC(=O)[C@@H]2C[C@H](Nc3nccc4ccc(-c5noc(C)n5)cc34)CN2)nc1C` [Example 239, Propyl 4-methyl-2-((2S,4S)-4-((7-(5-methyl-1,2,4-oxadiazol-3-yl)isoquinolin-1-yl)amino)pyrrolidine-2-carboxamido)thiazole-5-carboxylate], the concentration for half-maximal inhibition (IC50) was determined as 119 nM. With `CCCOC(=O)c1sc(C(=O)N2CC[C@H](NC(=O)c3cccc(-c4noc(C)n4)c3)C2)nc1C` [Example 240, Propyl (S)-4-methyl-2-(3-(3-(5-methyl-1,2,4-oxadiazol-3-yl)benzamido)pyrrolidine-1-carbonyl)thiazole-5-carboxylate] the figure was 98 nM. On to `CCCOC(=O)c1sc(C(=O)N2CC[C@H](NC(=O)c3cccc(-c4nnn(C)n4)c3)C2)nc1C` [Example 242, Propyl 4-methyl-2-[(3S)-3-[[3-(2-methyltetrazol-5-yl)benzoyl]amino]pyrrolidine-1-carbonyl]thiazole-5-carboxylate], for which the IC50 stood at 30 nM. Regarding `CCCOC(=O)c1sc(C(=O)N2CC[C@H](Nc3nccc4ccc(-c5noc(C)n5)cc34)C2)nc1C` [Example 243, Propyl (S)-4-methyl-2-(3-((7-(5-methyl-1,2,4-oxadiazol-3-yl)isoquinolin-1-yl)amino)pyrrolidine-1-carbonyl)thiazole-5-carboxylate], the IC50 stood at 11 nM.

As to `CCCOC(=O)c1sc(C(=O)N2CC[C@@H](Nc3nccc4ccc(-c5noc(C)n5)cc34)C2)nc1C` [Example 244, Propyl (R)-4-methyl-2-(3-((7-(5-methyl-1,2,4-oxadiazol-3-yl)isoquinolin-1-yl)amino)pyrrolidine-1-carbonyl)thiazole-5-carboxylate], the half-inhibitory concentration (IC50) is 608 nM. In the case of `CCCOC(=O)c1cc(C(=O)N2CC[C@H](Nc3nccc4ccc(-c5noc(C)n5)cc34)C2)nn1C` [Example 245, Propyl (S)-1-methyl-3-(3-((7-(5-methyl-1,2,4-oxadiazol-3-yl)isoquinolin-1-yl)amino)pyrrolidine-1-carbonyl)-1 H-pyrazole-5-carboxylate] it was 7470 nM. `Cc1nc(-c2ccc3ccnc(N[C@H]4CCN(C(=O)c5nc(C)c(C(C)(C)C)s5)C4)c3c2)no1` [Example 246, (S)-(5-(tert-butyl)-4-methylthiazol-2-yl)(3-((7-(5-methyl-1,2,4-oxadiazol-3-yl)isoquinolin-1-yl)amino)pyrrolidin-1-yl)methanone]: the IC50 worked out at 1740 nM. With `Cc1nc(-c2ccc3ccnc(N[C@H]4CCN(C(=O)c5cc(C6CC6)n(C)n5)C4)c3c2)no1` [Example 247, (S)-(5-cyclopropyl-1-methyl-1 H-pyrazol-3-yl)(3-((7-(5-methyl-1,2,4-oxadiazol-3-yl)isoquinolin-1-yl)amino)pyrrolidin-1-yl)methanone] the figure was 13600 nM; with `Cc1nc(-c2ccc3ccnc(N[C@H]4CCN(C(=O)c5cc(-c6ccccc6)n(C)n5)C4)c3c2)no1` [Example 248, (S)-(3-((7-(5-methyl-1,2,4-oxadiazol-3-yl)isoquinolin-1-yl)amino)pyrrolidin-1-yl)(1-methyl-5-phenyl-1 H-pyrazol-3-yl)methanone], 4140 nM. With `Cc1nc(-c2ccc3ccnc(N[C@H]4CCN(C(=O)c5cc(C(C)C)n(C)n5)C4)c3c2)no1` [Example 249, (S)-(5-isopropyl-1-methyl-1 H-pyrazol-3-yl)(3-((7-(5-methyl-1,2,4-oxadiazol-3-yl)isoquinolin-1-yl)amino)pyrrolidin-1-yl)methanone] the figure was 14500 nM; with `Cc1nc(-c2ccc3ccnc(N[C@H]4CCN(C(=O)c5cnc[nH]5)C4)c3c2)no1` [Example 250, (S)-(1 H-imidazol-5-yl)(3-((7-(5-methyl-1,2,4-oxadiazol-3-yl)isoquinolin-1-yl)amino)pyrrolidin-1-yl)methanone], 9460 nM.
